A short description of data set [1]: Compound stability in rat liver microsomes. The settings on record: for half-life: pH 7.4, 0.5 mg protein/mL, NADPH, 37° C.; for CLint scaled: pH 7.4, in vivo CLint extrapolated. The data set is classed as in vitro ADME. The protocol:
Human or rat liver microsomes incubations were conducted in duplicate in polypropylene tubes. The typical incubation mixtures consisted of human or rat liver microsomes (0.5 mg protein/mL), compounds of interest (5 μM) and NADPH (1.0 mM) in a total volume of 200 μL potassium phosphate buffer (PBS, 100 mM, pH 7.4). Compounds were dissolved in DMSO and diluted with PBS such that the final concentration of DMSO was 0.05%. The enzymatic reactions were commenced with the addition of protein after a 3-min preincubation and incubated in a water bath open to the air at 37° C. Reactions were terminated at various time points (0, 5, 10, 15, 30, 60 min) by adding equal volume of ice-cold acetonitrile. The samples were stored at −80° C. until LC/MS/MS assays.
The concentrations of compounds in the incubation mixtures of human or rat liver microsomes were determined by a LC/MS/MS method. The ranges of the linearity in the concentration range were determined for each tested compounds.
A parallel incubation was performed using denatured microsomes as the negative control, and reactions were terminated at various time points (0, 15, 60 min) after incubation at 37° C.
Dextromethorphan (70 μM) was selected as the positive control, and reactions were terminated at various time points (0, 5, 10, 15, 30, 60 min) after incubation at 37° C. Both positive and negative control samples were included in each assay to ensure the integrity of the microsomal incubation system.
Alternatively, the stability of some of the compounds disclosed herein in human (or rat) liver microsomes were also conducted in the following protocol. The incubations were conducted in duplicate in polypropylene tubes. The typical incubation mixtures consisted of liver microsomes (final concentration: 0.5 mg protein/mL), compounds (final concentration: 1.5 μM) in a total volume of 30 μL K-buffer (contain 1.0 mM EDTA, 100 mM, pH7.4). Compounds were dissolved in DMSO and diluted with K-buffer such that the final concentration of DMSO was 0.2%. The enzymatic reactions were commenced with the addition of 15 μL of NADPH (final concentration: 2 mM) after 10 min preincubation and incubated in a 37° C. incubator. Reactions were terminated at various time points (0, 15, 30, 60 min) by adding 135 μL acetonitrile (contain IS). Protein is removed by centrifugation with 4000 rpm, 10 min. Supernatant was collected for LCMS/MS analysis
In the above protocol, ketanserin (1 μM) was selected as the positive control, and reactions were terminated at various time points (0, 15, 30, 60 min) after incubation at 37° C. The positive control sample was included in each assay to ensure the integrity of the microsomal incubation system.
The concentrations of compounds in human or rat liver microsome incubations were plotted as a percentage of the relevant zero time point control for each reaction. The in vivo CLint were extrapolated (ref: Naritomi, Y.; Terashita, S.; Kimura, S.; Suzuki, A.; Kagayama, A.; and Sugiyama, Y.; Prediction of human hepatic clearance from in vivo animal experiments and in vitro metabolic studies with liver microsomes from animals and humans. Drug Metab. Dispos., 2001, 29: 1316-1324).

The target in the next data set is T1, Axl (h) (Homo sapiens, UniProt P30530).
T1 construct: purchased Millipore UK Ltd
T1 sequence (P30530 26-894): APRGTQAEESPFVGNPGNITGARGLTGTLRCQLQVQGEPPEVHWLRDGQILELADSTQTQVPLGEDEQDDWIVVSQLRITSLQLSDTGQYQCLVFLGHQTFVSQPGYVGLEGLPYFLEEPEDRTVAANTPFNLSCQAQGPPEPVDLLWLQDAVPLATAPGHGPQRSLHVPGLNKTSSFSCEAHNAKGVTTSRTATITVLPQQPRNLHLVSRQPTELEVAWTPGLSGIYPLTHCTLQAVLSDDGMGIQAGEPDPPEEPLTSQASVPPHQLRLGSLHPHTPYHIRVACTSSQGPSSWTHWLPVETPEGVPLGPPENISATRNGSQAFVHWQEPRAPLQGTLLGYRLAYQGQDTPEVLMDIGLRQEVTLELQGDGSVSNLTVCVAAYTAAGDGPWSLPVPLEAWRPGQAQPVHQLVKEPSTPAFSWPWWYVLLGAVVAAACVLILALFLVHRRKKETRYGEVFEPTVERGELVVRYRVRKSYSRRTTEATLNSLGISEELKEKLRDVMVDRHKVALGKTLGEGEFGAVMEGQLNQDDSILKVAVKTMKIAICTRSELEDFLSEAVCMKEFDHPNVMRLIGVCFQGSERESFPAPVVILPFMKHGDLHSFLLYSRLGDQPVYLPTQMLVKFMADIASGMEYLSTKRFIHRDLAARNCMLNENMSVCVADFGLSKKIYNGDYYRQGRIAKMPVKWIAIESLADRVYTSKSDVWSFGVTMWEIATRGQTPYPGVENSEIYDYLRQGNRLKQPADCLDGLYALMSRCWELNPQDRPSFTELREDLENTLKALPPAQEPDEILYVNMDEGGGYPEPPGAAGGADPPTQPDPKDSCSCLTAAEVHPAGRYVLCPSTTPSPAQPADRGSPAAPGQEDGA
The experiment in a line: Axl (h) kinase assay. The data set is classed as biochemical. The protocol: The above assay procedure can be used to determine the IC50 for inhibition and/or the inhibition constant, Ki. The IC50 is defined as the concentration of compound required to reduce the enzyme activity by 50% under the condition of the assay. The IC50 value is estimated by preparing a 10 point curve using a 1/2 log dilution series (for example, a typical curve may be prepared using the following compound concentrations: 10 μM, 3 μM, 1 μM, 0.3 μM, 0.1 μM, 0.03 μM, 0.01 μM, 0.003 μM, 0.001 μM and 0 μM).
Axl (h) is incubated with 8 mM MOPS pH 7.0, 0.2 mM EDTA, 250 μM KKSRGDYMTMQIG, 10 mM MgAcetate and [γ-^33P-ATP] (specific activity approx. 500 cpm/pmol, concentration as required). The reaction is initiated by the addition of the MgATP mix. After incubation for 40 minutes at room temperature, the reaction is stopped by the addition of 3% phosphoric acid solution. 10 μL of the reaction is then spotted onto a P30 filtermat and washed three times for 5 minutes in 75 mM phosphoric acid and once in methanol prior to drying and scintillation counting.
The kinase assays described herein were performed at Millipore UK Ltd, Dundee Technology Park, Dundee DD2 1SW, UK.

This passage reports half-life, CLint scaled and IC50 results from patent US20150299219A1, “BICYCLIC PYRAZOLONE COMPOUNDS AND METHODS OF USE” (Calitor Sciences, LLC, priority 2014, published 2015).

The half-life is how long it takes for the measured level to halve. Read a low half-life as rapid decline. By CLint scaled is commonly meant a measure of how fast metabolising enzymes remove a compound, apart from limits set by blood flow. Usually IC50 stands for the concentration at which inhibition is half-maximal.

For the compound `O=C(Nc1ccc(Oc2ccnc(NC(=O)C3CC3)c2)cc1)c1c2n(n(-c3ccccc3)c1=O)CCC2` [Ex. 2, N-(4-((2-(cyclopropanecarboxamido)pyridin-4-yl)oxy)phenyl)-2-oxo-1-phenyl-2,4,5,6-tetrahydro-1H-pyrrolo[1,2-b]pyrazole-3-carboxamide], in data set [1], the half-life is 3.19 h and the intrinsic metabolic clearance (CLint scaled) was 13 mL/min/kg.
Regarding `CC(=O)Nc1cc(Oc2ccc(NC(=O)c3c4n(n(-c5ccccc5)c3=O)CCC4)cc2)ccn1` [Ex. 3, N-(4-((2-acetamidopyridin-4-yl)oxy)phenyl)-2-oxo-1-phenyl-2,4,5,6-tetrahydro-1H-pyrrolo[1,2-b]pyrazole-3-carboxamide], in data set [1], the half-life is 5.7 h and the intrinsic metabolic clearance (CLint scaled) is 7.26 mL/min/kg.
As to `CC(=O)Nc1cc(Oc2ccc(NC(=O)c3c4n(n(-c5ccccc5)c3=O)CCOC4)nc2)ccn1` [Ex. 12, N-(5-((2-acetamidopyridin-4-yl)oxy)pyridin-2-yl)-2-oxo-1-phenyl-2,4,6,7-tetrahydro-1H-pyrazolo[5,1-c][1,4]oxazine-3-carboxamide], in data set [1], the half-life was 16.6 h and the CLint scaled is 2.49 mL/min/kg. The compound further yielded an IC50 on Axl (h) of 14 nM.
In the case of `O=C(Nc1ccc(Oc2ccnc(NC(=O)C3CC3)c2)cn1)c1c2n(n(-c3ccccc3)c1=O)CCC2` [Ex. 14, N-(5-((2-(cyclopropanecarboxamido)pyridin-4-yl)oxy)pyridin-2-yl)-2-oxo-1-phenyl-2,4,5,6-tetrahydro-1H-pyrrolo[1,2-b]pyrazole-3-carboxamide], in data set [1], the half-life is 3.32 h and the CLint scaled is 12.5 mL/min/kg. This compound also registered an IC50 on Axl (h) of 7 nM.
The matching figures for `O=C(Nc1ccc(Oc2ccnc(NC(=O)C3CC3)c2)cc1)c1c2n(n(-c3ccccc3)c1=O)CCOC2` [Ex. 19, N-(4-((2-(cyclopropanecarboxamido)pyridin-4-yl)oxy)phenyl)-2-oxo-1-phenyl-2,4,6,7-tetrahydro-1H-pyrazolo[5,1-c][1,4]oxazine-3-carboxamide]: 2.87 h, 14.4 mL/min/kg and 5 nM.
